{"source": "ChEMBL document CHEMBL5308504", "about": "“Tm Shift (DSF) assay results for EUbOPEN Chemogenomics Library” (2023)", "key": {"Peregrin (Homo sapiens)": {"target": "T1, Peregrin (Homo sapiens) (UniProt P55201)", "T1 sequence (whole entry)": "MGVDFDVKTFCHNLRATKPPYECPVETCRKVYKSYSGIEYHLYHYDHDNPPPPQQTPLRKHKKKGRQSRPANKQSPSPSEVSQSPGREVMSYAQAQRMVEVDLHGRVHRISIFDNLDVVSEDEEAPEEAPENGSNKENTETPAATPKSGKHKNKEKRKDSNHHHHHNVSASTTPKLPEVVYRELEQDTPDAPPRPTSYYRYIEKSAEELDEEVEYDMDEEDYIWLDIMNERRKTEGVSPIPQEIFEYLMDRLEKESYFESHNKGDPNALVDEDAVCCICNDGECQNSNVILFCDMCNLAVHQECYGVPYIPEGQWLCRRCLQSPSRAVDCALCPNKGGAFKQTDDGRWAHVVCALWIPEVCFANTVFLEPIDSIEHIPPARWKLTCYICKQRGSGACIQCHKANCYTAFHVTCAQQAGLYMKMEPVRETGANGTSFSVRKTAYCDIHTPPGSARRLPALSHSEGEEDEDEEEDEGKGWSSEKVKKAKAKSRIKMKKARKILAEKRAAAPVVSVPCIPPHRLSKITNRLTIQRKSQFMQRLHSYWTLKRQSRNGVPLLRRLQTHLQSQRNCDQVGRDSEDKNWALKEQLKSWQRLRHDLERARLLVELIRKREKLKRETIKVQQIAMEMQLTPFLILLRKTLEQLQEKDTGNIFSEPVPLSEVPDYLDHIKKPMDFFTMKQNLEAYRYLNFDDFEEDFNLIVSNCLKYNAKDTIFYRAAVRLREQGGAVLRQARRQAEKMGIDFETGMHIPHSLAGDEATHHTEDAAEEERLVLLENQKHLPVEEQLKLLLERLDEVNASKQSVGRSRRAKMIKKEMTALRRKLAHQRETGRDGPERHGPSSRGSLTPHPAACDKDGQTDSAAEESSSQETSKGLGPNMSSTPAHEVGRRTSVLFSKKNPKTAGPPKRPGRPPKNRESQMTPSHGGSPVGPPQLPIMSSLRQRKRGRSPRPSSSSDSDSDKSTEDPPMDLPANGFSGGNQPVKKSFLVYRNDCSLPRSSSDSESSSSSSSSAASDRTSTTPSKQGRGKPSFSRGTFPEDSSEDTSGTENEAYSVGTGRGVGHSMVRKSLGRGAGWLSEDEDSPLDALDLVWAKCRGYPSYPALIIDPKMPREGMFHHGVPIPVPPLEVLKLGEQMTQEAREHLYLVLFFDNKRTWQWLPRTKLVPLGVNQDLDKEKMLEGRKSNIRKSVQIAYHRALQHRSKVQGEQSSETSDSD", "conditions": "Compound concentration 20.0 uM, Protein concentration 2.0 uM, Result type QC Liability"}, "[1]": {"target": "Fibroblast growth factor receptor 3 (Homo sapiens) (UniProt P22607)", "sequence (P22607 23-806 limits assumed)": "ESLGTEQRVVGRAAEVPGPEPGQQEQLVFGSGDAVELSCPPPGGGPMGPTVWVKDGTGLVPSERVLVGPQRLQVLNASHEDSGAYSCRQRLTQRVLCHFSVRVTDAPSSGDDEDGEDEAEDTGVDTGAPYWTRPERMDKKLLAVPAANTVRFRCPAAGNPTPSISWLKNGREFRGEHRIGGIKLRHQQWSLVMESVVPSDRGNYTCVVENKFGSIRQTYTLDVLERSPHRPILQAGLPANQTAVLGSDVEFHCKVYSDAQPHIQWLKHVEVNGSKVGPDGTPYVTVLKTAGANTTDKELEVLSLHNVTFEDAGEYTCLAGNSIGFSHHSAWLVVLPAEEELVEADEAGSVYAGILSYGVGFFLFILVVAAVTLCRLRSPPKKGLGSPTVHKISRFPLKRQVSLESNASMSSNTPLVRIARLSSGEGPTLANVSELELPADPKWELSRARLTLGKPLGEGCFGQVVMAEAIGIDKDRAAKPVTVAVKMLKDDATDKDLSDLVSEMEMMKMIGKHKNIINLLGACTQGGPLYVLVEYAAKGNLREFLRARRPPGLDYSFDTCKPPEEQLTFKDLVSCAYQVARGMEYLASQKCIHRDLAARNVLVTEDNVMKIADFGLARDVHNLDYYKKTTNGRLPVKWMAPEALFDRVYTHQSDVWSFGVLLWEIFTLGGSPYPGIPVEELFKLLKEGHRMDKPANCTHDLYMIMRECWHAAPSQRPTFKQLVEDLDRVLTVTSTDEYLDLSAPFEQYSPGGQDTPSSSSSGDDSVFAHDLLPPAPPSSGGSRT", "conditions": "Compound concentration 20.0 uM, Protein concentration 2.0 uM, Result type QC Liability", "description": "Thermal Shift Assay. Domain: start/stop: P449-E759"}}}
{"smiles": "CN(C)C/C=C/C(=O)Nc1cc2c(Nc3ccc(F)c(Cl)c3)ncnc2cc1OC[C@@H]1CCCO1", "values": [{"measurement": "ΔTm", "setting": "Peregrin (Homo sapiens)", "result": -0.41, "unit": "°C"}, {"measurement": "ΔTm", "setting": "[1]", "result": 1.49, "unit": "°C"}]}
{"smiles": "C[C@]12CC[C@@H]3c4ccc(C(N)=O)cc4CC[C@H]3[C@@H]1CC=C2c1cncc(F)c1", "values": [{"measurement": "ΔTm", "setting": "Peregrin (Homo sapiens)", "result": -4.27, "unit": "°C"}, {"measurement": "ΔTm", "setting": "[1]", "result": 0.92, "unit": "°C"}]}
{"smiles": "C[C@H](CCOc1cccc(CC(=O)O)c1)N(Cc1cccc(C(F)(F)F)c1Cl)CC(c1ccccc1)c1ccccc1", "values": [{"measurement": "ΔTm", "setting": "Peregrin (Homo sapiens)", "result": -4.82, "unit": "°C"}, {"measurement": "ΔTm", "setting": "[1]", "result": 2.11, "unit": "°C"}]}
{"smiles": "O[C@]1(C(F)(F)F)CCCC[C@H]1Nc1ccc(F)cc1", "values": [{"measurement": "ΔTm", "setting": "Peregrin (Homo sapiens)", "result": 0.24, "unit": "°C"}, {"measurement": "ΔTm", "setting": "[1]", "result": 0.58, "unit": "°C"}]}
{"smiles": "COc1ccc(-c2cc3c(C)nc(N)nc3n([C@H]3CC[C@H](OCCO)CC3)c2=O)cn1", "values": [{"measurement": "ΔTm", "setting": "Peregrin (Homo sapiens)", "result": 0.08, "unit": "°C"}, {"measurement": "ΔTm", "setting": "[1]", "result": 0.24, "unit": "°C"}]}
{"smiles": "Cc1nnc2n1-c1sc(CCC(=O)N3CCOCC3)cc1C(c1ccccc1Cl)=NC2", "values": [{"measurement": "ΔTm", "setting": "Peregrin (Homo sapiens)", "result": -2.21, "unit": "°C"}, {"measurement": "ΔTm", "setting": "[1]", "result": 1.44, "unit": "°C"}]}
{"smiles": "COc1cccc(CNc2ccc(S(=O)(=O)Nc3nc4ccccc4s3)cc2)c1O", "values": [{"measurement": "ΔTm", "setting": "Peregrin (Homo sapiens)", "result": -0.69, "unit": "°C"}, {"measurement": "ΔTm", "setting": "[1]", "result": 1.44, "unit": "°C"}]}
{"smiles": "CC(=O)N1CCC(c2ccc(C(=O)NC(=N)N)cc2C(F)(F)F)CC1", "values": [{"measurement": "ΔTm", "setting": "Peregrin (Homo sapiens)", "result": -2.69, "unit": "°C"}, {"measurement": "ΔTm", "setting": "[1]", "result": 1.29, "unit": "°C"}]}
{"smiles": "Cn1ccc(Cn2cnc(-c3ccc(F)cc3)c2-c2ccnc3[nH]ccc23)n1", "values": [{"measurement": "ΔTm", "setting": "Peregrin (Homo sapiens)", "result": -1.13, "unit": "°C"}, {"measurement": "ΔTm", "setting": "[1]", "result": 0.54, "unit": "°C"}]}
{"smiles": "CO[C@H]1CC[C@H](N(c2cc(F)c(Oc3ncc(Cn4nccn4)cc3C(F)(F)F)cc2C(=O)O)C(=O)[C@H]2CC[C@H](C)CC2)CC1", "values": [{"measurement": "ΔTm", "setting": "Peregrin (Homo sapiens)", "result": -4.09, "unit": "°C"}, {"measurement": "ΔTm", "setting": "[1]", "result": 0.62, "unit": "°C"}]}
{"smiles": "C[C@@]1(Cc2ccc(C#N)cc2)C(=O)N(c2cc(Cl)cc(Cl)c2)c2ncc(C(=O)NC3(c4nc(C5CCC5)no4)CC3)n21", "values": [{"measurement": "ΔTm", "setting": "Peregrin (Homo sapiens)", "result": 3.75, "unit": "°C"}, {"measurement": "ΔTm", "setting": "[1]", "result": 3.32, "unit": "°C"}]}
{"smiles": "O=C(CCCCCCc1ccccc1)c1ncc(-c2ccccn2)o1", "values": [{"measurement": "ΔTm", "setting": "Peregrin (Homo sapiens)", "result": -3.08, "unit": "°C"}, {"measurement": "ΔTm", "setting": "[1]", "result": 0.46, "unit": "°C"}]}
{"smiles": "C=C1/C(=C\\C=C2/CCC[C@]3(C)[C@@H]([C@H](C)CCCC(C)(C)O)CC[C@@H]23)C[C@@H](O)C[C@@H]1O", "values": [{"measurement": "ΔTm", "setting": "Peregrin (Homo sapiens)", "result": -2.59, "unit": "°C"}, {"measurement": "ΔTm", "setting": "[1]", "result": 1.25, "unit": "°C"}]}
{"smiles": "Cc1cc(-c2ccnc(Nc3cnn(C)c3)n2)ccc1CNC(=O)N1CC(OC(C)C)C1", "values": [{"measurement": "ΔTm", "setting": "Peregrin (Homo sapiens)", "result": -1.39, "unit": "°C"}, {"measurement": "ΔTm", "setting": "[1]", "result": 2.34, "unit": "°C"}]}
{"smiles": "CN1CCN(c2ccc(/C=C(\\C#N)c3ccccc3Br)cc2)CC1", "values": [{"measurement": "ΔTm", "setting": "Peregrin (Homo sapiens)", "result": -2.48, "unit": "°C"}, {"measurement": "ΔTm", "setting": "[1]", "result": 1.23, "unit": "°C"}]}
{"smiles": "CCN(CC)C(=O)C1CN2CCc3cc(OC)c(OC)cc3C2CC1OC(C)=O", "note": "(configuration not stated)", "values": [{"measurement": "ΔTm", "setting": "Peregrin (Homo sapiens)", "result": -2.07, "unit": "°C"}, {"measurement": "ΔTm", "setting": "[1]", "result": 0.43, "unit": "°C"}]}
{"smiles": "O=C(CCCN1CCC(O)(c2ccc(Cl)cc2)CC1)c1ccc(F)cc1", "values": [{"measurement": "ΔTm", "setting": "Peregrin (Homo sapiens)", "result": -1.6, "unit": "°C"}, {"measurement": "ΔTm", "setting": "[1]", "result": 0.59, "unit": "°C"}]}
{"smiles": "CN(C)CCC[C@@]1(c2ccc(F)cc2)OCc2cc(C#N)ccc21", "values": [{"measurement": "ΔTm", "setting": "Peregrin (Homo sapiens)", "result": -3.08, "unit": "°C"}, {"measurement": "ΔTm", "setting": "[1]", "result": 0.45, "unit": "°C"}]}
{"smiles": "CC(C)(O)CNC(=O)N1C(=O)N(c2cccc(C(F)(F)F)c2)C2=C(C(=O)CC2)[C@@H]1c1ccc(C#N)cc1", "values": [{"measurement": "ΔTm", "setting": "Peregrin (Homo sapiens)", "result": -2.73, "unit": "°C"}, {"measurement": "ΔTm", "setting": "[1]", "result": 0.55, "unit": "°C"}]}
{"smiles": "COc1c(-c2cn(C3CCC(=O)NC3=O)nn2)csc1C(=O)N1CCCC1", "note": "(configuration not stated)", "values": [{"measurement": "ΔTm", "setting": "Peregrin (Homo sapiens)", "result": -1.52, "unit": "°C"}, {"measurement": "ΔTm", "setting": "[1]", "result": 0.59, "unit": "°C"}]}
{"smiles": "CN[C@@H](C)C(=O)N[C@H](C(=O)N1CCC[C@H]1c1nc(C(=O)c2ccc(F)cc2)cs1)C1CCCCC1", "values": [{"measurement": "ΔTm", "setting": "Peregrin (Homo sapiens)", "result": -1.91, "unit": "°C"}, {"measurement": "ΔTm", "setting": "[1]", "result": 0.96, "unit": "°C"}]}
{"smiles": "CCCS(=O)(=O)N[C@H]1C[C@@H](N(C)c2ncnc3[nH]ccc23)C1", "values": [{"measurement": "ΔTm", "setting": "Peregrin (Homo sapiens)", "result": -1.75, "unit": "°C"}, {"measurement": "ΔTm", "setting": "[1]", "result": 1.73, "unit": "°C"}]}
{"smiles": "Cc1cc([N+](=O)[O-])c(NS(=O)(=O)c2cccc(C(=O)O)c2)cc1-c1cccnc1", "values": [{"measurement": "ΔTm", "setting": "Peregrin (Homo sapiens)", "result": 0.37, "unit": "°C"}, {"measurement": "ΔTm", "setting": "[1]", "result": 0.67, "unit": "°C"}]}
{"smiles": "CCOC(=O)C1Cc2ccccc2CN1C(=O)c1ccc(SC)s1", "note": "(configuration not stated)", "values": [{"measurement": "ΔTm", "setting": "Peregrin (Homo sapiens)", "result": -1.13, "unit": "°C"}, {"measurement": "ΔTm", "setting": "[1]", "result": 0.41, "unit": "°C"}]}
{"smiles": "CC(=O)Oc1ccc2c(c1)[C@@]1(C)CCC[C@](C)(C(=O)OC(=O)[C@@]3(C)CCC[C@]4(C)c5cc(OC(C)=O)ccc5CC[C@@H]34)[C@@H]1CC2", "values": [{"measurement": "ΔTm", "setting": "Peregrin (Homo sapiens)", "result": -2.67, "unit": "°C"}, {"measurement": "ΔTm", "setting": "[1]", "result": 0.1, "unit": "°C"}]}
{"smiles": "Cn1cc(-n2cnc3c(NCc4nc5cc(Cl)c(Cl)cc5[nH]4)nc(N4CCOCC4)nc32)cn1", "values": [{"measurement": "ΔTm", "setting": "Peregrin (Homo sapiens)", "result": -0.07, "unit": "°C"}, {"measurement": "ΔTm", "setting": "[1]", "result": 0.69, "unit": "°C"}]}
{"smiles": "Nc1ncnc2[nH]c(-c3ccccc3)nc12", "values": [{"measurement": "ΔTm", "setting": "Peregrin (Homo sapiens)", "result": -0.39, "unit": "°C"}, {"measurement": "ΔTm", "setting": "[1]", "result": 1.78, "unit": "°C"}]}
{"smiles": "Cc1nc(Nc2cnn(C3CCNCC3)c2)nc2c1N(C)C(=O)c1cc3ccccc3cc1N2C", "values": [{"measurement": "ΔTm", "setting": "Peregrin (Homo sapiens)", "result": -2.69, "unit": "°C"}, {"measurement": "ΔTm", "setting": "[1]", "result": 1.22, "unit": "°C"}]}
{"smiles": "CC(C)N(CCCCOCC(=O)O)c1cnc(-c2ccccc2)c(-c2ccccc2)n1", "values": [{"measurement": "ΔTm", "setting": "Peregrin (Homo sapiens)", "result": -4.18, "unit": "°C"}, {"measurement": "ΔTm", "setting": "[1]", "result": -0.51, "unit": "°C"}]}
{"smiles": "O=C(O)/C=C/c1ccc(Cn2ccnc2)cc1", "values": [{"measurement": "ΔTm", "setting": "Peregrin (Homo sapiens)", "result": -2.72, "unit": "°C"}, {"measurement": "ΔTm", "setting": "[1]", "result": 0.54, "unit": "°C"}]}
{"smiles": "O=C(NCCS(=O)(=O)c1ccc(C(F)(F)F)cn1)c1ccc(Cl)cc1", "values": [{"measurement": "ΔTm", "setting": "Peregrin (Homo sapiens)", "result": -0.99, "unit": "°C"}, {"measurement": "ΔTm", "setting": "[1]", "result": 0.38, "unit": "°C"}]}
